Results on seven compounds are retold here after ChEMBL document CHEMBL1137784, “L337H mutant of rat neuronal nitric oxide synthase resembles human neuronal nitric oxide synthase toward inhibitors” (J Med Chem, 2009).

Broadly, the IC50 is the point on the concentration scale where inhibition reaches its midpoint.

Test [1] deals with Nitric oxide synthase 1 (Rattus norvegicus, UniProt P29476). The test is described as follows: Inhibition of wild type rat nNOS by hemoglobin capture assay.
In test [2] the target is T1, Nitric oxide synthase 1 (Homo sapiens, UniProt P29475). Kind of test: Inhibition of human nNOS by hemoglobin capture assay.
T1 sequence (P29475 whole entry): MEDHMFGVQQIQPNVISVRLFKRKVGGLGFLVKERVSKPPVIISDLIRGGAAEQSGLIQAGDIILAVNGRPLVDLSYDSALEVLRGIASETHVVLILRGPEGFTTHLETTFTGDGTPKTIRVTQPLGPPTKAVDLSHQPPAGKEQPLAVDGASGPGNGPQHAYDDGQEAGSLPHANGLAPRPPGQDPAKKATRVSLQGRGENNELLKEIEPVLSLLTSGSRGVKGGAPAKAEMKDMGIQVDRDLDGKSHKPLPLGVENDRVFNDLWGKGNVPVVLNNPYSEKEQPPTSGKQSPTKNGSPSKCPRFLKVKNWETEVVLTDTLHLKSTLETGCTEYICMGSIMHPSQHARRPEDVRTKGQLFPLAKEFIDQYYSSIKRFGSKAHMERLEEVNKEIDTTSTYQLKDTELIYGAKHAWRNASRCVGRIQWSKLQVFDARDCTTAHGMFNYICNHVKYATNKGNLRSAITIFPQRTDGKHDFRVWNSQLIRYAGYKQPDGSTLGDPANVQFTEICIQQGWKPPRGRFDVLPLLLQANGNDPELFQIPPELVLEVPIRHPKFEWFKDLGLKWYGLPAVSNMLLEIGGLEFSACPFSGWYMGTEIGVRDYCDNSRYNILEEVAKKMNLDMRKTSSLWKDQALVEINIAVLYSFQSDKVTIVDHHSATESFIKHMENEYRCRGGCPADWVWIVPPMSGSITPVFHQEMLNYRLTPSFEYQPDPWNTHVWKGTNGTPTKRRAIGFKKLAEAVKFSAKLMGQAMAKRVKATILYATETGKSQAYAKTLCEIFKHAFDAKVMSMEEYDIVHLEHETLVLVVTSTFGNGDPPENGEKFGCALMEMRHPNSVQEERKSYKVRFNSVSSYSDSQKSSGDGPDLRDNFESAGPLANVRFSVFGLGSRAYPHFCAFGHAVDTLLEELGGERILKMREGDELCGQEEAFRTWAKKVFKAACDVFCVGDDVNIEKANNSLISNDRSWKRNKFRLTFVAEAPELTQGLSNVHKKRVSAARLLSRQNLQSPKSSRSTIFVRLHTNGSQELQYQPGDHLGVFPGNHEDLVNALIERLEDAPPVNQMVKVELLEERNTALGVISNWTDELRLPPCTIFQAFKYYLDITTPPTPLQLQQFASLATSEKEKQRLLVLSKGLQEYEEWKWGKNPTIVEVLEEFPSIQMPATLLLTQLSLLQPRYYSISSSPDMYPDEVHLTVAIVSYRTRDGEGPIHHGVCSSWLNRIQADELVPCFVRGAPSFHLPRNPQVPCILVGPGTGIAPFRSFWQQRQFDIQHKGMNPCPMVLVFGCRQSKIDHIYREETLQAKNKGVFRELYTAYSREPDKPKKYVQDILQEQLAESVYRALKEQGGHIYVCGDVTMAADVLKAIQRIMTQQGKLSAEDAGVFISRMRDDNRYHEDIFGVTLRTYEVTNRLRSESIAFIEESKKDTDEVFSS
In test [3] the target is Nitric oxide synthase 1 (Rattus norvegicus, UniProt P29476, L337H).
Chain of Nitric oxide synthase 1 (Rattus norvegicus, UniProt P29476, L337H) (P29476 whole entry L337H): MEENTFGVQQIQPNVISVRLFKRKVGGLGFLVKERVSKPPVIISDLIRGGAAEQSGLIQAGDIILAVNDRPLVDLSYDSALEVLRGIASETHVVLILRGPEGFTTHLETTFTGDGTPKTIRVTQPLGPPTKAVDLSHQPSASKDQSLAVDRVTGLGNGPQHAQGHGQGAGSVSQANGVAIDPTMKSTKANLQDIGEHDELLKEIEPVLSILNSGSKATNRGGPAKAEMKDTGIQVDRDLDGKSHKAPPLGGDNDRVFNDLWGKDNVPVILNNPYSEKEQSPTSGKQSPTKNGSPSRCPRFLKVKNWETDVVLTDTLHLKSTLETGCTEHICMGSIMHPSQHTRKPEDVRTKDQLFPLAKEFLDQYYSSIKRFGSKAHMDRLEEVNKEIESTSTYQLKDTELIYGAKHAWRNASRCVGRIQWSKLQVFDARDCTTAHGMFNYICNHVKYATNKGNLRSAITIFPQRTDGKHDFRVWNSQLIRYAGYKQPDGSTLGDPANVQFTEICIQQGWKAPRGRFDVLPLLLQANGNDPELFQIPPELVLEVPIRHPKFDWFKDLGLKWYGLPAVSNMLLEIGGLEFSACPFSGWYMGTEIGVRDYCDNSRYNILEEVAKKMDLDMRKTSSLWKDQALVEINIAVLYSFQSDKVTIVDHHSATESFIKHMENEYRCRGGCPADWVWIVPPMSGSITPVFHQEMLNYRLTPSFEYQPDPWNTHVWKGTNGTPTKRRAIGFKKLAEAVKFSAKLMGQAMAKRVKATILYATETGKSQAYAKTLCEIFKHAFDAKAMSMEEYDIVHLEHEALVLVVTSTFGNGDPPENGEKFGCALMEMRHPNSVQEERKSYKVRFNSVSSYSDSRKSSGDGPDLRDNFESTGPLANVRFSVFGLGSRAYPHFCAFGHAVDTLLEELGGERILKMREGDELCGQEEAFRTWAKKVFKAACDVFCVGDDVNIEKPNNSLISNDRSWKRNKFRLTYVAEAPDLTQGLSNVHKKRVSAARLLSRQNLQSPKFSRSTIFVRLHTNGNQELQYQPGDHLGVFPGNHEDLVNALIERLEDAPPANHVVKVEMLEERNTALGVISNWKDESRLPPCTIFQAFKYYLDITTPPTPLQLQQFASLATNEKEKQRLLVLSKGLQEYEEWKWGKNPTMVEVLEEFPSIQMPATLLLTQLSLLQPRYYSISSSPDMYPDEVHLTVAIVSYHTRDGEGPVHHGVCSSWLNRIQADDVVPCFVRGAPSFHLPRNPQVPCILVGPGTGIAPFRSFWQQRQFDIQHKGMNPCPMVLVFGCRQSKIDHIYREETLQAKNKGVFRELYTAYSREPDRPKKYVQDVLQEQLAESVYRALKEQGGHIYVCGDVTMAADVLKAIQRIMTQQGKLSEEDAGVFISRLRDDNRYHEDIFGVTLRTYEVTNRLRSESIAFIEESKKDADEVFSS
Test [4] is described as follows: Selectivity ratio of IC50 for wild type rat nNOS to IC50 for human nNOS by hemoglobin capture assay.
The species named for test [5] is Rattus norvegicus. Kind of test: Selectivity ratio of IC50 for wild type rat nNOS to IC50 for rat nNOS L337H mutant by hemoglobin capture assay.
Test [6] deals with T1, Nitric oxide synthase 1. The test is described as follows: Inhibition of human nNOS by radioactivity assay.

Chain of Nitric oxide synthase 1 (Rattus norvegicus, UniProt P29476) (P29476 whole entry): as the sequence (P29476 whole entry L337H) above, with H337L counted along it

As to `Cc1cc(C)nc(N)c1`, the IC50 in test [1] was determined as 100 nM; in test [2], 0.1 µM; in test [3], 0.1 µM. Moreover, the Ratio IC50 came to 1 in test [4] and 1.1 in test [5].
Turning to `Cc1cc(N)nc(CC2CNCC2OCCNCCc2cccc(F)c2)c1` (racemic), the IC50 was found to be 0.6 µM in test [2] and 700 nM in test [6].
In test [2], `NCCNC1CNCC1Cc1cccc(N)n1` (racemic) gave an IC50 of 15.3 µM.
On to `Cc1cc(N)nc(CC2CNCC2NCCN)c1` (racemic), for which the half-inhibitory concentration (IC50) in test [1] worked out at 1300 nM; in test [2], 4 µM; in test [3] it was 3.4 µM. Moreover, the Ratio IC50 in test [4] amounted to 3.1; in test [5] it was 2.7.
The matching figures for `Cc1cc(N)nc(CC2CNCC2NCCOCCc2cccc(F)c2)c1` (racemic): 2900 nM, 6.6 µM, 5.5 µM, 2.4 and 1.9.
Regarding `Cc1cc(N)nc(CC2CNCC2NC(=O)CNCCc2cccc(F)c2)c1` (racemic), the results for the IC50 in test [1], in test [2] and in test [3] were 700 nM, 3 µM and 4 µM, respectively. In addition, the Ratio IC50 came out at 4.3 in test [4] and 5.7 in test [5].
With `Cc1cc(N)nc(CC2CNCC2NCCNCCc2ccc(Cl)cc2)c1` (racemic), the IC50 in test [1] was determined as 1100 nM; in test [2], 4.2 µM; in test [3], 5 µM. In addition, the Ratio IC50 in test [4] came to 3.8; in test [5], 4.6.
